The values that follow come from patent US20160166576A1, “SUBSTITUTED AMIDOPYRAZOLE INHIBITORS OF INTERLEUKIN RECEPTOR-ASSOCIATED KINASES (IRAK-4)” (MERCK SHARP & DOHME CORP., priority 2013, published 2016).

Molecules are shown by their SMILES. pIC50: −log10 of the molar value. Read-outs that look alike come from different tables or passages of the source.

Series [1] in a line: Rat pharmacokinetics after PO and SC dosing. The class given is in vivo, female Lewis rats. To be noted: for Cmax: rat, fed female Lewis rats, plasma; for Cmax compared to that of Compound A: rats, at either 30 mpk SC dosing or 30 mpk PO dosing or both. How it is done: Pharmacokinetic Properties
Pharmacokinetic parameters were determined following PO and SC dosing at 30 mg/kg in fed female Lewis rats. Compounds were formulated for both PO and SC dosing in 50/50 (v/v) 50% captisol/50 mM citrate buffer (pH 4). Plasma samples obtained from dosed animals were prepared for analysis by means of a single step protein precipitation technique by adding 200 μL of acetonitrile to 50 μL aliquots of individual subject samples. Samples were mixed by vortex for homogeneity and then subjected to centrifugation at 3500 rpm for 10 min. The supernatant (200 μL) was collected and injected into the LC-MS/MS for analysis. Pharmacokinetic parameters were calculated using established non-compartmental methods.

Series [2] concerns the target T1, IRAK4 (Homo sapiens, UniProt Q9NWZ3).
T1 construct: GST; purchased SignalChem
T1 sequence (Q9NWZ3 1-460): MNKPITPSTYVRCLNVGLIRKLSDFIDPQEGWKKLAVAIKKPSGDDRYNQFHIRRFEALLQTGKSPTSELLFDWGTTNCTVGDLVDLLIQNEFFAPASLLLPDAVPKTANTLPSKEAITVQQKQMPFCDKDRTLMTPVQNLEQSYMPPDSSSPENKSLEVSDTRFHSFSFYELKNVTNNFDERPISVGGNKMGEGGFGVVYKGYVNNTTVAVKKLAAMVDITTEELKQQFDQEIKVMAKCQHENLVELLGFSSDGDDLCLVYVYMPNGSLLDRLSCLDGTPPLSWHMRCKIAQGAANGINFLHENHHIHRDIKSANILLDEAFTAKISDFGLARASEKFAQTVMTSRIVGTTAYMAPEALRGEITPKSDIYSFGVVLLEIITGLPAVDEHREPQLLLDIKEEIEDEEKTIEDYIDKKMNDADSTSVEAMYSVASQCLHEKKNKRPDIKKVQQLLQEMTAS
Nature of the series: IRAK4 IMAP kinase activity assay (fluorescence polarization). To be noted: 1 nM GST tagged IRAK4, 100 μM ATP, 1 hour at 25° C. In kind it is biochemical. How it is done: Determination of IRAK4 Kinase Activity
The kinase activity of IRAK4 is determined by its ability to catalyze the phosphorylation of a fluorescent polypeptide substrate. The extent of phosphorylation is measured using IMAP technology (Molecular Devices) where the phosphorylated fluorescent substrate binds to the large M(III)-based nanoparticles which reduces the rotational speed of the substrate and thus increases its fluorescent polarization (FP).
Procedure: A 20 μl reaction mixture contains 10 mM TriHC1, pH 7.2, 1 nM GST tagged IRAK4 (SignalChem), 100 nM fluorescent peptide substrate (RP7030, Molecular Devices), 100 μM ATP, 1 mM DTT, 2 mM MgCl2, and 0.01% Tween 20. The reaction is initiated by the addition of ATP. After incubation for 1 hour at 25° C., 60 μl of Progressive IMAP Reagent (Molecular Devices) is added to stop the reaction. Change in RP7030's FP is determined by a FP reader (EnVision Multilabel Reader, Perkin Elmer).
A general note: Fluorescence polarisation rises when a labelled molecule tumbles more slowly, as on binding a larger partner.

[3] abbreviates: 30 mg/kg PO, read-out: Rat PK, 30 mpk PO, Cmax.
Where [4] appears, read: 30 mg/kg SC, read-out: Rat PK, 30 mpk SC, Cmax.

Usually Cmax stands for the peak of the concentration-time curve. By pIC50 is commonly meant −log10 of the IC50, conventionally taken in molar units. Low values mean a high IC50, high ones a low IC50. Turning to `Cc1ccc(-n2nc(N3CCN([C@@H]4CCS(=O)(=O)C4)CC3)cc2NC(=O)c2cnn3cccnc23)nc1` [Compound 8, N-[3-{4-[(3R)-1,1-dioxidotetrahydrothiophen-3-yl]piperazin-1-yl}-1-(5-methylpyridin-2-yl)-1H-pyrazol-5-yl]pyrazolo[1,5-a]pyrimidine-3-carboxamide], the Cmax in series [1] (setting [3]) is 8.6 µM; in series [1] (setting [4]), 1.5 µM. In series [1], the “Cmax compared to that of Compound A” value is given as “superior”. This compound also had a negative-log IC50 (pIC50) in series [2] of 9.00.

Turning to `Cc1ccc(-n2nc(N3CCN([C@H]4CCS(=O)(=O)C4)CC3)cc2NC(=O)c2cnn3cccnc23)nc1` [Compound 9, N-[3-{4-[(3S)-1,1-dioxidotetrahydrothiophen-3-yl]piperazin-1-yl}-1-(5-methylpyridin-2-yl)-1H-pyrazol-5-yl]pyrazolo[1,5-a]pyrimidine-3-carboxamide], the maximum concentration (Cmax) in series [1] (setting [3]) worked out at 7.7 µM; in series [1] (setting [4]), 8.1 µM. Further, the “Cmax compared to that of Compound A” value in series [1] is given as “superior”. The negative logarithm of the IC50 (pIC50) in series [2] was 8.70.

As for `Cc1ccc(-n2nc(N3CCN(CC(N)=O)CC3)cc2NC(=O)c2cnn3cccnc23)nc1` [Compound 16, N-{3-[4-(2-amino-2-oxoethyl)piperazin-1-yl]-1-(5-methylpyridin-2-yl)-1H-pyrazol-5-yl}pyrazolo[1,5-a]pyrimidine-3-carboxamide], the Cmax stood at 4.3 µM in series [1] (setting [3]) and 16.1 µM in series [1] (setting [4]). Besides, the “Cmax compared to that of Compound A” value in series [1] is “superior”. Also, the pIC50 in series [2] is 8.40.

In the case of `Cc1ccc(-n2nc(N3CCN(C)CC3)cc2NC(=O)c2cnn3ccccc23)nc1` [Compound A, reference compound], the results for the Cmax in series [1] (setting [3]) and in series [1] (setting [4]) were 1 µM and 3.3 µM, respectively. The same compound gave a pIC50 in series [2] of 8.70.
